Assay results taken from patent US9474790B2, “Stable, protracted GLP-1/glucagon receptor co-agonists for medical use” (Novo Nordisk A/S, priority 2013, dated 2016).
Numbered stars: 1 amine (or outer) side, 2 acyl side, 3 side chain; on linkers, the order of the positions; unused ones are H or OH. Bridge positions count the residues as written; N and C are the ends. Square brackets hold non-standard residues; d marks the D form. Side chains are listed from the residue outwards. Peptide text beside a SMILES is read from it. I, II: the chains in the order shown. * marks the point of attachment. C18 diacid = O=C(O)CCCCCCCCCCCCCCCCC(=O)*; γGlu = O=C(O)[C@H](CCC(=O)[*:2])N[*:1]; Ac4c = NC1(C(=O)O)CCC1; AEEA = NCCOCCOCC(=O)O; Aib = CC(C)(N)C(=O)O

Molecular target: T1, human GLP-1 receptor (Homo sapiens, UniProt P43220)
T1 construct: expressed in transfected cells; host or cells: BHK cells (parent BHKTS13), clone FCW467-12A/KZ10-1, with CRE luciferase
T1 sequence (P43220 24-463): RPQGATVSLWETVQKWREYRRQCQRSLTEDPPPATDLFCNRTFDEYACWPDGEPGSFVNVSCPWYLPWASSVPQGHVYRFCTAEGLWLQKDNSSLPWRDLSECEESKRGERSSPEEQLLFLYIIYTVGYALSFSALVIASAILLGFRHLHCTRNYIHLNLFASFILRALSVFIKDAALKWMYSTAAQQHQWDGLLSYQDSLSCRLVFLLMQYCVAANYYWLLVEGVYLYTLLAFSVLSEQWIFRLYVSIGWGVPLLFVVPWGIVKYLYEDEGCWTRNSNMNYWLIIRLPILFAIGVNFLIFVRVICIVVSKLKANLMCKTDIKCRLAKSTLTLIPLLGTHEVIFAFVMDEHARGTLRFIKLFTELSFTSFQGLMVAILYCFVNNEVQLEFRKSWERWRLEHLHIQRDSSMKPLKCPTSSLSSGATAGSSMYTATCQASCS
Test: GLP-1 receptor binding, 125I-GLP-1 displacement SPA on isolated membranes
Details: displacement of 125I-GLP-1 from membranes; read-out: IC50 GLP-1R
Outline: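 SPA displacement of 125I-GLP-1(7-36)NH2 from membranes of BHK cells expressing human GLP-1 receptor, with WGA beads, in 50 mM HEPES, 5 mM EGTA, 5 mM MgCl2, 0.005% Tween 20, pH 7.4. Incubated 2 h at 30°C; IC50 by non-linear regression, run at ≤0.001% or 2.0% final serum albumin.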

`CC(C)C[C@H](NC(=O)[C@H](Cc1ccc(O)cc1)NC(=O)[C@H](CCCCN)NC(=O)[C@H](CO)NC(=O)[C@H](CC(C)C)NC(=O)[C@H](CC(=O)O)NC(=O)[C@H](CO)NC(=O)[C@@H](NC(=O)[C@H](Cc1ccccc1)NC(=O)[C@@H](NC(=O)CNC(=O)[C@H](CCC(N)=O)NC(=O)C(C)(C)NC(=O)[C@@H](N)Cc1c[nH]cn1)[C@@H](C)O)[C@@H](C)O)C(=O)N[C@@H](CC(=O)O)C(=O)N[C@@H](C)C(=O)N[C@@H](CCCNC(=N)N)C(=O)N[C@@H](CCCNC(=N)N)C(=O)N[C@@H](C)C(=O)N[C@@H](CCCNC(=N)N)C(=O)N[C@@H](CCC(=O)O)C(=O)N[C@@H](Cc1ccccc1)C(=O)N[C@H](C(=O)N[C@@H](CCC(N)=O)C(=O)N[C@@H](Cc1c[nH]c2ccccc12)C(=O)N[C@@H](CC(C)C)C(=O)N[C@@H](CC(C)C)C(=O)N[C@@H](CCCCNC(=O)CC[C@H](NC(=O)CC[C@H](NC(=O)COCCOCCNC(=O)COCCOCCNC(=O)CC[C@H](NC(=O)CCCCCCCCCCCCCCCCC(=O)O)C(=O)O)C(=O)O)C(=O)O)C(=O)N[C@H](C(N)=O)[C@@H](C)O)C(C)C` [Example 43, N^ε28-[(4S)-4-carboxy-4-[[(4S)-4-carboxy-4-[[2-[2-[2-[[2-[2-[2-[[(4S)-4-carboxy-4-(17-carboxyheptadecanoylamino)butanoyl]amino]ethoxy]ethoxy]acetyl]amino]ethoxy]ethoxy]acetyl]amino]butanoyl]amino]butanoyl]-[Aib2,Leu10,Ala16,Arg20,Glu21,Leu27,Lys28]-Glucagon amide] (H-H[Aib]QGTFTSDLSKYLDARRAREFVQWLLK([γGlu-γGlu-AEEA-AEEA-γGlu-C18 diacid])T-NH2; N-terminus assumed) was tested. Which IC50 did it give?
The IC50 was 0.3 nM.

Which IC50 does the source give for `CC(C)C[C@H](NC(=O)[C@H](Cc1ccc(O)cc1)NC(=O)[C@H](CCCCN)NC(=O)[C@H](CO)NC(=O)[C@H](CC(C)C)NC(=O)[C@H](CC(=O)O)NC(=O)[C@H](CO)NC(=O)[C@@H](NC(=O)[C@H](Cc1ccccc1)NC(=O)[C@@H](NC(=O)CNC(=O)[C@H](CCC(N)=O)NC(=O)C1(NC(=O)[C@@H](N)Cc2c[nH]cn2)CCC1)[C@@H](C)O)[C@@H](C)O)C(=O)N[C@@H](CCC(=O)O)C(=O)N[C@@H](CO)C(=O)N[C@@H](CCCNC(=N)N)C(=O)N[C@@H](CCCNC(=N)N)C(=O)N[C@@H](C)C(=O)N[C@@H](CCCNC(=N)N)C(=O)N[C@@H](CCC(=O)O)C(=O)N[C@@H](Cc1ccccc1)C(=O)N[C@H](C(=O)N[C@@H](CCC(N)=O)C(=O)N[C@@H](Cc1c[nH]c2ccccc12)C(=O)N[C@@H](CC(C)C)C(=O)N[C@@H](CC(C)C)C(=O)N[C@@H](CCCCNC(=O)CC[C@H](NC(=O)CC[C@H](NC(=O)COCCOCCNC(=O)COCCOCCNC(=O)CC[C@H](NC(=O)CCCCCCCCCCCCCCCCC(=O)O)C(=O)O)C(=O)O)C(=O)O)C(=O)N[C@H](C(N)=O)[C@@H](C)O)C(C)C` [Example 44, N^ε28-[(4S)-4-carboxy-4-[[(4S)-4-carboxy-4-[[2-[2-[2-[[2-[2-[2-[[(4S)-4-carboxy-4-(17-carboxyheptadecanoylamino)butanoyl]amino]ethoxy]ethoxy]acetyl]amino]ethoxy]ethoxy]acetyl]amino]butanoyl]amino]butanoyl]-[Acb2,Leu10,Glu15,Arg20,Glu21,Leu27,Lys28]-Glucagon amide] (H-H[Ac4c]QGTFTSDLSKYLESRRAREFVQWLLK([γGlu-γGlu-AEEA-AEEA-γGlu-C18 diacid])T-NH2; N-terminus assumed) here?
The IC50 was 0.3 nM.

Which IC50 does the source give for `CC(C)C[C@H](NC(=O)[C@H](CC(=O)O)NC(=O)[C@H](CC(C)C)NC(=O)[C@H](Cc1ccc(O)cc1)NC(=O)[C@H](CCCCN)NC(=O)[C@H](CO)NC(=O)[C@H](CC(C)C)NC(=O)[C@H](CC(=O)O)NC(=O)[C@H](CO)NC(=O)[C@@H](NC(=O)[C@H](Cc1ccccc1)NC(=O)[C@@H](NC(=O)CNC(=O)[C@H](CCC(N)=O)NC(=O)C1(NC(=O)[C@@H](N)Cc2c[nH]cn2)CCC1)[C@@H](C)O)[C@@H](C)O)C(=O)N[C@@H](CCCNC(=N)N)C(=O)N[C@@H](CCCNC(=N)N)C(=O)N[C@@H](C)C(=O)N[C@@H](CCCNC(=N)N)C(=O)N[C@@H](CC(=O)O)C(=O)N[C@@H](Cc1ccccc1)C(=O)N[C@H](C(=O)N[C@@H](CCC(N)=O)C(=O)N[C@@H](Cc1c[nH]c2ccccc12)C(=O)N[C@@H](CC(C)C)C(=O)N[C@@H](CC(C)C)C(=O)N[C@@H](CCCCNC(=O)CC[C@H](NC(=O)CC[C@H](NC(=O)COCCOCCNC(=O)COCCOCCNC(=O)CC[C@H](NC(=O)CC[C@H](NC(=O)CCCCCCCCCCCCCCCCC(=O)O)C(=O)O)C(=O)O)C(=O)O)C(=O)O)C(=O)N[C@H](C(N)=O)[C@@H](C)O)C(C)C` [Example 45, N^ε28-[(4S)-4-carboxy-4-[[(4S)-4-carboxy-4-[[2-[2-[2-[[2-[2-[2-[[(4S)-4-carboxy-4-[[(4S)-4-carboxy-4-(17-carboxyheptadecanoylamino)butanoyl]amino]butanoyl]amino]ethoxy]ethoxy]acetyl]amino]ethoxy]ethoxy]acetyl]amino]butanoyl]amino]butanoyl]-[Acb2,Leu10,Leu16,Arg20,Leu27,Lys28]-Glucagon amide] (H-H[Ac4c]QGTFTSDLSKYLDLRRARDFVQWLLK([γGlu-γGlu-AEEA-AEEA-γGlu-γGlu-C18 diacid])T-NH2; N-terminus assumed) here?
The IC50 was 0.4 nM.

For `CC(C)C[C@H](NC(=O)[C@H](CC(=O)O)NC(=O)[C@H](CC(C)C)NC(=O)[C@H](Cc1ccc(O)cc1)NC(=O)[C@H](CCCNC(=N)N)NC(=O)[C@H](CO)NC(=O)[C@H](CC(C)C)NC(=O)[C@H](CC(=O)O)NC(=O)[C@H](CO)NC(=O)[C@@H](NC(=O)[C@H](Cc1ccccc1)NC(=O)[C@@H](NC(=O)CNC(=O)[C@H](CCC(N)=O)NC(=O)C1(NC(=O)[C@@H](N)Cc2c[nH]cn2)CCC1)[C@@H](C)O)[C@@H](C)O)C(=O)N[C@@H](CCCNC(=N)N)C(=O)N[C@@H](CCCNC(=N)N)C(=O)N[C@@H](C)C(=O)N[C@@H](CCCNC(=N)N)C(=O)N[C@@H](CC(=O)O)C(=O)N[C@@H](Cc1ccccc1)C(=O)N[C@H](C(=O)N[C@@H](CCC(N)=O)C(=O)N[C@@H](Cc1c[nH]c2ccccc12)C(=O)N[C@@H](CC(C)C)C(=O)N[C@@H](CC(C)C)C(=O)N[C@@H](CCCCNC(=O)CC[C@H](NC(=O)CC[C@H](NC(=O)COCCOCCNC(=O)COCCOCCNC(=O)CC[C@H](NC(=O)CC[C@H](NC(=O)CCCCCCCCCCCCCCCCC(=O)O)C(=O)O)C(=O)O)C(=O)O)C(=O)O)C(=O)N[C@H](C(N)=O)[C@@H](C)O)C(C)C` [Example 46, N^ε28-[(4S)-4-carboxy-4-[[(4S)-4-carboxy-4-[[2-[2-[2-[[2-[2-[2-[[(4S)-4-carboxy-4-[[(4S)-4-carboxy-4-(17-carboxyheptadecanoylamino)butanoyl]amino]butanoyl]amino]ethoxy]ethoxy]acetyl]amino]ethoxy]ethoxy]acetyl]amino]butanoyl]amino]butanoyl]-[Acb2,Leu10,Arg12,Leu16,Arg20,Leu27,Lys28]-Glucagon amide] (H-H[Ac4c]QGTFTSDLSRYLDLRRARDFVQWLLK([γGlu-γGlu-AEEA-AEEA-γGlu-γGlu-C18 diacid])T-NH2; N-terminus assumed), which IC50 is on record?
Its IC50 is 1.1 nM.

With `CC(C)C[C@H](NC(=O)[C@H](CC(=O)O)NC(=O)[C@H](CC(C)C)NC(=O)[C@H](Cc1ccc(O)cc1)NC(=O)[C@H](CCCCN)NC(=O)[C@H](CO)NC(=O)[C@H](CC(C)C)NC(=O)[C@H](CC(=O)O)NC(=O)[C@H](CO)NC(=O)[C@@H](NC(=O)[C@H](Cc1ccccc1)NC(=O)[C@@H](NC(=O)CNC(=O)[C@H](CCC(N)=O)NC(=O)C1(NC(=O)[C@@H](N)Cc2c[nH]cn2)CCC1)[C@@H](C)O)[C@@H](C)O)C(=O)N[C@@H](CCCCN)C(=O)N[C@@H](CCCNC(=N)N)C(=O)N[C@@H](C)C(=O)N[C@@H](CCCNC(=N)N)C(=O)N[C@@H](CCC(=O)O)C(=O)N[C@@H](Cc1ccccc1)C(=O)N[C@H](C(=O)N[C@@H](CCC(N)=O)C(=O)N[C@@H](Cc1c[nH]c2ccccc12)C(=O)N[C@@H](CC(C)C)C(=O)N[C@@H](CC(C)C)C(=O)N[C@@H](CCCCNC(=O)CC[C@H](NC(=O)CC[C@H](NC(=O)COCCOCCNC(=O)COCCOCCNC(=O)CC[C@H](NC(=O)CC[C@H](NC(=O)CCCCCCCCCCCCCCCCC(=O)O)C(=O)O)C(=O)O)C(=O)O)C(=O)O)C(=O)N[C@H](C(N)=O)[C@@H](C)O)C(C)C` [Example 47, N^ε28-[(4S)-4-carboxy-4-[[(4S)-4-carboxy-4-[[2-[2-[2-[[2-[2-[2-[[(4S)-4-carboxy-4-[[(4S)-4-carboxy-4-(17-carboxyheptadecanoylamino)butanoyl]amino]butanoyl]amino]ethoxy]ethoxy]acetyl]amino]ethoxy]ethoxy]acetyl]amino]butanoyl]amino]butanoyl]-[Acb2,Leu10,Leu16,Lys17,Arg20,Glu21,Leu27,Lys28]-Glucagon amide] (H-H[Ac4c]QGTFTSDLSKYLDLKRAREFVQWLLK([γGlu-γGlu-AEEA-AEEA-γGlu-γGlu-C18 diacid])T-NH2; N-terminus assumed) as the compound, how does the IC50 read?
The IC50 was 0.2 nM.

With `CC(C)C[C@H](NC(=O)[C@H](CC(=O)O)NC(=O)[C@H](CC(C)C)NC(=O)[C@H](Cc1ccc(O)cc1)NC(=O)[C@H](CCCCN)NC(=O)[C@H](CO)NC(=O)[C@H](CC(C)C)NC(=O)[C@H](CC(=O)O)NC(=O)[C@H](CO)NC(=O)[C@@H](NC(=O)[C@H](Cc1ccccc1)NC(=O)[C@@H](NC(=O)CNC(=O)[C@H](CCC(N)=O)NC(=O)C1(NC(=O)[C@@H](N)Cc2c[nH]cn2)CCC1)[C@@H](C)O)[C@@H](C)O)C(=O)N[C@@H](CCCCN)C(=O)N[C@@H](CCCNC(=N)N)C(=O)N[C@@H](C)C(=O)N[C@@H](CCCNC(=N)N)C(=O)N[C@@H](CCC(=O)O)C(=O)N[C@@H](Cc1ccccc1)C(=O)N[C@H](C(=O)N[C@@H](CCC(N)=O)C(=O)N[C@@H](Cc1c[nH]c2ccccc12)C(=O)N[C@@H](CC(C)C)C(=O)N[C@@H](CC(C)C)C(=O)N[C@@H](CCCCNC(=O)CNC(=O)[C@H](CO)NC(=O)[C@H](CCC(=O)O)NC(=O)CNC(=O)[C@H](CO)NC(=O)CC[C@H](NC(=O)CC[C@H](NC(=O)CCCCCCCCCCCCCCCCC(=O)O)C(=O)O)C(=O)O)C(=O)N[C@H](C(N)=O)[C@@H](C)O)C(C)C` [Example 48] (I: H-H[Ac4c]QGTFTSDLSKYLDLKRAREFVQWLLKT-NH2 / II: {C18 diacid-γGlu-γGlu}-SGESG; amide I:28-II:C; N-terminus assumed) as the compound, how does the IC50 read?
The IC50 was 0.2 nM.
